Source: patent publication US20250326748A1, “COMPOUNDS AND METHODS FOR MODULATING SPLICING” (REMIX THERAPEUTICS INC., priority 2022, published 2025)
Counter-ions that a name gives are not always drawn. Like-named read-outs stand apart in the source and are kept apart here.

Tests used:
K562 cells = assay: Cell viability, Cell Titer Glo 2.0 assay, K562; conditions: 72 hours
SMN2 mRNA = assay: Splicing RT-qPCR panel, SMN2 canonical junction (CJ) mRNA; type: cell-based, human; conditions: Homo sapiens, read-out: SMN2 CJ (decrease in CJ mRNA levels, IC50)
Procedure: (§1) Compounds described herein were used to modulate RNA transcript abundance in cells. The expression of a target mRNA was measured by detecting the formation of an exon-exon junction in the canonical transcript (CJ). A compound mediated exon-inclusion event was detected by observing an increase in formation of a new junction with an alternative exon (AJ). Real-time qPCR assays were used to detect these splicing switches and interrogate the potency of various compounds towards different target genes. A high-throughput real time quantitative PCR (RT-qPCR) assay was developed to measure these two isoforms of the mRNA (CJ and AJ) for exemplary genes, such as HTT, SMN2, and MYB, together with a control housekeeping gene, GAPDH or GUSB or PPIA, used for normalization. Briefly, the A673 or K562 cell line was treated with various compounds described herein (e.g., compounds of Formula (D). After treatment, the levels of the HTT, MYB, or SMN2 mRNA targets were determined from each sample of cell lysate by cDNA synthesis followed by qPCR.
(§2) The A673 cell line was cultured in DMEM with 10% FBS. Cells were diluted with full growth media and plated in a 96-well plate (15,000 cells in 100 ul media per well). The plate was incubated at 37° C. with 5% CO2 for 24 hours to allow cells to adhere. An 11-point 3-fold serial dilution of the compounds was made in DMSO then diluted in media in an intermediate plate. Compounds were transferred from the intermediate plate to the cell plate with the top dose at a final concentration of 10 uM in the well. Final DMSO concentration was kept at or below 0.25%. The cell plate was returned to the incubator at 37° C. with 5% CO2 for an additional 24 hours.
(§3) The K562 cell line was cultured in IMDM with 10% FBS. For K562, cells were diluted with full growth media and plated in either a 96-well plate (50,000 cells in 50 uL media per well) or a 384-well plate (8,000-40,000 cells in 45 uL media per well). An 11-point 3-fold serial dilution of the compounds were made in DMSO then diluted in media in an intermediate plate. Compound was transferred from the intermediate plate to the cell plate with the top dose at a final concentration of 10 uM in the well. Final DMSO concentration was kept at or below 0.25%. Final volume was 100 uL for 96-well plate and 50 uL for 384-well plate. The cell plate was then placed in an incubator at 37° C. with 5% CO2 for 24 hours.
(§4) The cells were then gently washed with 50 uL-100 uL cold PBS before proceeding to addition of lysis buffer. 30 uL-50 μL of room temperature lysis buffer with DNAse I (and optionally RNAsin) was added to each well. Cells were shaken/mixed thoroughly at room temperature for 5-10 minutes for lysis to take place and then 3 uL-5 μL of room temperature stop solution was added and wells were shaken/mixed again. After 2-5 minutes, the cell lysate plate was transferred to ice for RT-qPCR reaction setup. The lysates could also be frozen at −80° C. for later use.
(§5) In some cases, a direct lysis buffer was used. An appropriate volume of 3× lysis buffer (10 mM Tris, 150 mM NaCl, 1.5%-2.5% Igepal and 0.1-1 U/uL RNAsin, pH 7.4) was directly added to either K562 or A673 cells in media and mixed by pipetting 3 times. The plates were then incubated at room temperature with shaking/rocking for 20-50 minutes to allow for lysis to take place. After this time, the cell lysate plate was transferred to ice to set up for the RT-qPCR reactions. The lysates could also be frozen at −80° C. for later use.
(§6) To set up 10 uL RT-qPCR reactions, cell lysates were transferred to 384-well qPCR plates containing the master mix according to the table below. The plates were sealed, gently vortexed, and spun down before the run. The volumes were adjusted accordingly in some instances where the reaction was carried in 20 μL. The table below summarizes the components of the RT-qPCR reactions:
(§7) The RT-qPCR reaction was performed using a QuantStudio (ThermoFisher) under the following fast cycling conditions. […]

HTT mRNA = assay: Splicing RT-qPCR assay, HTT canonical (CJ) and alternative (AJ) junction mRNA; type: cell-based, human; conditions: Homo sapiens; for IC50: canonical junction mRNA; for AC50: alternative junction mRNA, read-out: HTT AJ (AC50, increase in AJ mRNA)
Procedure: as §1
(§8) • Cells-to-CT 1-step kit: ThermoFisher A25602, Cells-to-CT lysis reagent: ThermoFisher 4391851C, TaqMan™ Fast Virus 1-Step Master Mix: ThermoFisher 4444436 • GAPDH: VIC-PL, ThermoFisher 4326317E (Assay: Hs99999905_m1)—used for K562/suspension cell lines • GUSB: VIC-PL, ThermoFisher 4326320E (Assay: Hs99999908_m1)—used for K562/suspension cell lines • PPIA: VIC-PL, ThermoFisher 4326316E (Assay: Hs99999904_m1)—used for A673/adherent cell lines
as §2, §3, §4
(§9) In some cases, a direct lysis buffer was used. An appropriate volume of 3× lysis buffer (10 mM Tris, 150 mM NaCl, 1.5%-2.5% Igepal and 0.1-1 U/uL RNAsin, pH 7.4) was directly added to either K562 or A673 cells in media and mixed by pipetting 3 times. The plates were then incubated at room temperature with shaking/rocking for 20-50 minutes to allow for lysis to take place. After this time, the cell lysate plate was transferred to ice to set up for the RT-qPCR reactions. The lysates could also be frozen at −80° C. for later use. […]

MYB mRNA = assay: Splicing RT-qPCR assay, MYB canonical (CJ) and alternative (AJ) junction mRNA; type: cell-based, human; conditions: Homo sapiens; for IC50: canonical junction mRNA; for AC50: alternative junction mRNA, read-out: MYB AJ (AC50, increase in AJ mRNA)
Procedure: as §1, §8, §2, §3, §4, §9

Target C mRNA = assay: Splicing RT-qPCR panel, Target C canonical junction (CJ) mRNA; type: cell-based, human; conditions: Homo sapiens, read-out: Target C CJ (decrease in CJ mRNA levels, IC50)
Procedure: as §1, §2, §3, §4, §5, §6, §7

[1] = 24 h, RT-qPCR, A673 or K562 cells, 24 hours treatment, read-out: HTT CJ (IC50, decrease in CJ mRNA)
[2] = qPCR panel, read-out: HTT CJ (decrease in CJ mRNA levels, IC50)
[3] = RT-qPCR, A673 or K562 cells, 24 hours treatment
[4] = qPCR panel, read-out: MYB CJ (decrease in CJ mRNA levels, IC50)
[5] = RT-qPCR, A673 or K562 cells, 24 hours treatment, read-out: MYB CJ (IC50, decrease in CJ mRNA)

| SMILES | Effect on Cell Viability, K562 (K562 cells) | IC50 (SMN2 mRNA) | IC50 (HTT mRNA; [1]) | IC50 (HTT mRNA; [2]) | AC50 (HTT mRNA; [3]) | IC50 (MYB mRNA; [4]) | AC50 (MYB mRNA; [3]) | IC50 (MYB mRNA; [5]) | IC50 (Target C mRNA) |
| --- | --- | --- | --- | --- | --- | --- | --- | --- | --- |
| COc1cc(-c2cc3cn(C)nc3c(C)c2O)nc2ncc(N3CCNCC3)cc12 [Compound 152, 5-(4-methoxy-6-(piperazin-1-yl)-1,8-naphthyridin-2-yl)-2,7-dimethyl-2H-indazol-6-ol 2,2,2-trifluoroacetate] | B (100-1000 nM) | < 100 nM | 100 to 1000 nM | 100 to 1000 nM | 1000 to 10000 nM | 100 to 1000 nM | 100 to 1000 nM | 100 to 1000 nM | 1000 to 10000 nM |
| Cn1cc2cc(-c3cnc4cc(C5CCNCC5)cc(F)c4n3)c(O)c(F)c2n1 [Compound 164, 7-fluoro-5-[8-fluoro-6-(piperidin-4-yl)quinoxalin-2-yl]-2-methylindazol-6-ol] |  | < 100 nM | < 100 nM | < 100 nM | < 100 nM | < 100 nM | < 100 nM | < 100 nM | < 100 nM |
| CN(C)C1CCN(c2ccc3nc(-c4cc5cn(C)nc5c(F)c4O)cnc3c2)CC1 [Compound 360, 5-{6-[4-(dimethylamino)piperidin-1-yl]quinoxalin-2-yl}-7-fluoro-2-methylindazol-6-ol] | B (100-1000 nM) | < 100 nM | 100 to 1000 nM | 100 to 1000 nM | > 10000 nM | < 100 nM | 100 to 1000 nM | < 100 nM | 1000 to 10000 nM |
| Cc1cn2cc(-c3ccc4cc(N(C)[C@@H]5CCNC5)cnc4n3)cc(F)c2n1 [Compound 361, 7-{8-fluoro-2-methylimidazo[1,2-a]pyridin-6-yl}-N-methyl-N-[(3R)-pyrrolidin-3-yl]-1,8-naphthyridin-3-amine hydrochloride] | C (1000-9999 nM) | > 10000 nM | > 10000 nM | > 10000 nM | > 10000 nM | > 10000 nM | > 10000 nM | > 10000 nM | > 10000 nM |
| C[C@@H]1CN(c2cnc3nc(-c4cc5cn(C)nc5cc4O)cc(C4CC4)c3c2)C[C@H](C)N1 [Compound 364, 5-{4-cyclopropyl-6-[(3R,5S)-3,5-dimethylpiperazin-1-yl]-1,8-naphthyridin-2-yl}-2-methylindazol-6-ol hydrochloride] | C (1000-9999 nM) | < 100 nM | < 100 nM | < 100 nM | 100 to 1000 nM | < 100 nM | 100 to 1000 nM | < 100 nM | 100 to 1000 nM |
| CN(c1cnc2nc(-c3cc(F)c4nn(C)cc4c3)ccc2c1)[C@@H]1CCNC1 [Compound 366, 7-(7-fluoro-2-methylindazol-5-yl)-N-methyl-N-[(3R)-pyrrolidin-3-yl]-1,8-naphthyridin-3-amine] | C (1000-9999 nM) | 100 to 1000 nM | > 10000 nM | > 10000 nM | > 10000 nM | 1000 to 10000 nM | 100 to 1000 nM | 1000 to 10000 nM | > 10000 nM |
| CN(c1cnc2nc(-c3cc(F)c4nn(C)cc4c3)ccc2c1)[C@H]1CCNC1 [Compound 367, 7-(7-fluoro-2-methylindazol-5-yl)-N-methyl-N-[(3S)-pyrrolidin-3-yl]-1,8-naphthyridin-3-amine] | C (1000-9999 nM) | 100 to 1000 nM | > 10000 nM | > 10000 nM | > 10000 nM | 1000 to 10000 nM | 1000 to 10000 nM | 1000 to 10000 nM | > 10000 nM |
| COc1nc(-c2cc3cn(C)nc3c(C)c2O)nc2ncc(N3C[C@@H](C)N[C@@H](C)C3)cc12 [Compound 369] | B (100-1000 nM) | < 100 nM | 1000 to 10000 nM | 1000 to 10000 nM | 1000 to 10000 nM | 100 to 1000 nM | 100 to 1000 nM | 100 to 1000 nM | 1000 to 10000 nM |
| CN1CCC[C@H]2CN(c3cnc4nc(-c5cc6cn(C)nc6cc5O)cc(Cl)c4c3)C[C@H]21 [Compound 372, 5-{6-[(4aS,7aS)-1-methyl-hexahydro-2H-pyrrolo[3,4-b]pyridin-6-yl]-4-chloro-1,8-naphthyridin-2-yl}-2-methylindazol-6-ol] | B (100-1000 nM) | < 100 nM | > 10000 nM | > 10000 nM | > 10000 nM | 100 to 1000 nM | 100 to 1000 nM | 100 to 1000 nM | > 10000 nM |
